Test results reported in PubChem BioAssay (NCI).
Values joined by “and” are separate entries in the source; they are usually repeats but may differ in a detail not shown here. Identical values can stand only once.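 Compound exposure: 48 hours, 5 concentrations, 96-well plates. At the GI50, growth is halved. TGI denotes the concentration required for complete inhibition of growth.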

What was measured:
Assay in all cases: NCI-60 cell line screen, 48 h
[1] = system: SNB-78 CNS
[2] = system: UACC-62 melanoma
[3] = system: DLD-1 colon
[4] = system: OVCAR-5 ovarian
[5] = system: XF 498 CNS
[6] = system: DMS 273 small cell lung
[7] = system: K-562 leukemia
[8] = system: SK-MEL-5 melanoma
[9] = system: MOLT-4 leukemia
[10] = system: DU-145 prostate

Structure (SMILES) | TGI [1] [µM] | TGI [2] | TGI [3] [µM] | TGI [4] | TGI [5] [µM] | TGI [6] [µM] | TGI [7] [µM] | TGI [8] | TGI [9] [µM] | TGI [10] [µM] | GI50 [2] | GI50 [4] | GI50 [8] | GI50 [1] [µM] | GI50 [3] [µM] | GI50 [6] [µM] | GI50 [7] [µM] | GI50 [9] [µM] | GI50 [10] [µM]
CN1c2ccccc2N(C(=O)c2ccc([N+](=O)[O-])cc2)C(CC(=O)O)c2cccn21 (configuration not stated) | > 100 | > 100 µM | > 100 | > 100 µM | > 100 | > 100 | > 100 | > 100 µM | > 100 | – | – | – | – | – | – | – | – | – | –
Cc1cc(NCCCCCCCCNc2cc(C)nc3cc(N)ccc23)c2ccc(N)cc2n1 | – | 38.4 µM | > 100 | > 100 µM | – | 28.9 | 16.3 | 34.8 µM | > 100 | – | – | – | – | – | – | – | – | – | –
O=C(/C=C/c1cc(Cl)cc(Cl)c1O)c1cccc(O)c1 | > 100 | > 100 µM | > 100 | 28.3 µM | – | > 100 | > 100 | > 100 µM | 46.6 | – | – | – | – | – | – | – | – | – | –
CCCCCN(CCCCC)C(=O)[C@@H](CCC(=O)O)NC(=O)c1cc2ccccc2[nH]1 | > 100 | 47.5 µM | > 100 | > 100 µM | 71.3 | > 100 | > 100 | – | 46.6 | – | – | – | – | – | – | – | – | – | –
Cc1cn(C2CC(O)C(COC(=O)c3ccccc3)O2)c(=O)[nH]c1=O (configuration not stated) | > 100 | > 100 µM | > 100 | > 100 µM | > 100 | > 100 | > 100 | > 100 µM | > 100 | – | – | – | – | – | – | – | – | – | –
Cc1c(Cl)cccc1NC(=O)C(=O)C(C(=O)c1ccccc1-c1ccccc1)C1OC(=O)c2ccccc21 (configuration not stated) | > 100 | 37.3 µM | 49.1 | 46.9 µM | 29.3 | 77 | > 100 | 29.9 µM | 57.8 | – | – | – | – | – | – | – | – | – | –
Nc1ncnc2c1ncn2[C@]1(CO)C=C(CO)C(O)C1O (some centres not stated) | > 100 | – | > 100 | > 100 µM | > 100 | > 100 | – | > 100 µM | > 100 | – | – | – | – | – | – | – | – | – | –
COC(=O)C1CCc2c1c(=O)n1c([nH]c3ccccc31)c2C#N (configuration not stated) | > 100 | > 100 µM | > 100 | > 100 µM | > 100 | > 100 | > 100 | > 100 µM | – | – | – | – | – | – | – | – | – | – | –
CN(CCN1C(=O)c2cc([N+](=O)[O-])cc3cc([N+](=O)[O-])cc(c23)C1=O)CCN1C(=O)c2cc([N+](=O)[O-])cc3cc([N+](=O)[O-])cc(c23)C1=O | 5.91 | 3.8 µM | 18.8 | > 45.6 µM | 23.1 | 18.4 | > 100 | 8.49 µM | – | – | – | – | – | – | – | – | – | – | –
O=C(N/C(=C\c1ccc(Cl)cc1)c1nc2ccccc2[nH]1)c1ccccc1 | 85.4 | 32.3 µM | 52.2 | 85 µM | 36.9 | 42.9 | 38.8 | 35.3 µM | 43.2 | – | – | – | – | – | – | – | – | – | –
COC(=O)CCC(NC(=S)N/N=C(\C)c1cnc2ccccc2n1)C(=O)OC (configuration not stated) | > 100 | 38.5 µM | > 100 | 63.4 µM | > 100 | > 100 | > 100 | 80.7 µM | 59.4 | – | – | – | – | – | – | – | – | – | –
COc1ccc(C2=C(Cl)c3cc(OC)c(OC)cc3C2OC)cc1OC (configuration not stated) | > 100 | > 100 µM | 41.8 | > 100 µM | > 100 | > 100 | 52.7 | > 100 µM | > 100 | – | – | – | – | – | – | – | – | – | –
Cn1c2c(c3ccccc31)CCN(CCCCN1CCCCC1)C2=O | > 100 | 66 µM | > 100 | > 100 µM | > 100 | > 100 | > 100 | > 100 µM | > 100 | – | – | – | – | – | – | – | – | – | –
CC(=O)OCC1OC(n2cc(F)c(=O)[nH]c2=O)C(NC(=O)N(CCCl)N=O)C(OC(C)=O)C1OC(C)=O (configuration not stated) | > 100 | > 100 µM | > 100 | – | > 100 | > 100 | > 100 | > 100 µM | > 100 | – | – | – | – | – | – | – | – | – | –
COc1ccc(NC(=O)C(=O)c2c(O)c3ccc(O)cc3oc2=O)c([N+](=O)[O-])c1 | – | > 100 µM | > 100 | > 100 µM | – | > 100 | > 100 | > 100 µM | > 100 | – | – | – | – | – | – | – | – | – | –
CCC(C)CCOC(=O)c1ccc(N=Cc2ccc(C=Nc3ccc(C(=O)OCCC(C)CC)cc3)cc2)cc1 (configuration not stated) | > 100 | > 100 µM | > 100 | > 100 µM | – | > 100 | > 100 | > 100 µM | > 100 | – | – | – | – | – | – | – | – | – | –
CN1C(=O)CCC1(O)C1C=CC=CC1 (configuration not stated) | > 100 | > 100 µM | > 100 | > 100 µM | > 100 | > 100 | > 100 | > 100 µM | > 100 | – | – | – | – | – | – | – | – | – | –

Structure (SMILES) | TGI [1] [µM] | TGI [2] | TGI [3] [µM] | TGI [4] | TGI [5] [µM] | TGI [6] [µM] | TGI [7] [µM] | TGI [8] | TGI [9] [µM] | TGI [10] [µM] | GI50 [2] | GI50 [4] | GI50 [8] | GI50 [1] [µM] | GI50 [3] [µM] | GI50 [6] [µM] | GI50 [7] [µM] | GI50 [9] [µM] | GI50 [10] [µM]
N#Cc1c(-c2ccc(Cl)c(Cl)c2)c(-c2ccc(Cl)c(Cl)c2)nn(CC(=O)O)c1=O | > 100 | > 100 µM | > 100 | > 100 µM | 98.4 | > 100 | > 100 | > 100 µM | > 100 | – | – | – | – | – | – | – | – | – | –
O=C1NC(Cc2ccc(O)cc2)C(=O)N2CCCC12 (configuration not stated) | > 100 | > 100 µM | > 100 | > 100 µM | – | > 100 | > 100 | > 100 µM | > 100 | – | – | – | – | – | – | – | – | – | –
CC1=Nc2ccccc2S/C1=C(/C)NNS(=O)(=O)c1ccc(C)cc1 | > 100 | > 100 µM | – | > 100 µM | – | > 100 | > 100 | > 100 µM | > 100 | – | – | – | – | – | – | – | – | – | –
COc1cc2c(cc1OC)[C@@H](Nc1ccc(C#N)cc1)C1COC(=O)[C@@H]1C2c1cc(OC)c(O)c(OC)c1 (some centres not stated) | 95 | 12.9 µM and 2.68 µM | 9.29 | 95 µM and > 100 µM | – | 1.9 | – | 14.3 µM and 2.53 µM | – | > 100 | 0.372 µM and 0.167 µM | 0.545 µM and 2.05 µM | 0.499 µM and 0.292 µM | – | – | – | – | – | –
Cc1ccc(S(=O)(=O)OCCn2cnc3nc(NC(=O)c4ccccc4)[nH]c(=O)c32)cc1 | > 100 | > 100 µM | > 100 | > 100 µM | – | > 100 | > 100 | > 100 µM | – | – | – | – | – | – | – | – | – | – | –
CN(C)C=Nc1ccn(CCO)c(=O)n1 | > 100 | > 100 µM | > 100 | > 100 µM | – | > 100 | > 100 | > 100 µM | > 100 | – | – | – | – | – | – | – | – | – | –
N#Cc1cccc2c1Nc1ccccc1S2 | > 100 | > 100 µM | > 100 | > 100 µM | > 100 | > 100 | > 100 | > 100 µM | > 100 | – | – | – | – | – | – | – | – | – | –
C[C@@H](NC1CCCC[C@H]1O)c1ccccc1 (some centres not stated) | > 100 | > 100 µM | > 100 | – | > 100 | > 100 | > 100 | > 100 µM | > 100 | – | – | – | – | – | – | – | – | – | –
COc1ccc(C/C(=N/O)C(=O)NCCc2cc(Br)c(OCCCN(C)C)c(Br)c2)cc1Br | 68.4 | – | 25.3 | 49.2 µM | 25.6 | 7.61 | – | – | – | – | – | – | – | – | – | – | – | – | –
COP(=O)(OC)C(=O)N1N(c2ccc([N+](=O)[O-])cc2)C(=O)C(C)NC1(NNc1ccc([N+](=O)[O-])cc1)P(=O)(OC)OC (configuration not stated) | – | > 100 µM | > 100 | > 100 µM | > 100 | > 100 | > 100 | > 100 µM | > 100 | – | – | – | – | – | – | – | – | – | –
N.N.N.N.N.[Co+3].[I-].[N-]=[N+]=[N-] | > 100 | > 100 µM | > 100 | > 100 µM | – | > 100 | > 100 | > 100 µM | > 100 | – | 89.7 µM | > 100 µM | > 100 µM | > 100 | > 100 | > 100 | > 100 | 5.41 | –
COc1cc(Nc2nc3cc(N)cc(N)c3nc2-c2ccccc2)cc(OC)c1OC | – | 31.8 µM | – | 46.7 µM | – | – | 40.1 | 27.8 µM | 18 | 74 | 13.6 µM | 21.3 µM | 13 µM | – | – | – | 12.5 | 2.57 | 21.9
C=C1CC[C@@H]2[C@](C)(COC(C)=O)[C@H](OC(C)=O)CC[C@@]2(C)[C@@H]1CC(Nc1ccc(S(=O)(=O)NC(C)=O)cc1)C1=CCOC1=O (some centres not stated) | – | 10.8 µM | – | 15.4 µM | – | – | 17.6 | 11.5 µM | 6.66 | 9.74 | 2.59 µM | 4.82 µM | 3.22 µM | – | – | – | 2.58 | 2.2 | 2.8
COc1ccc(/C=C/C(=O)c2cc(OC)c(OC)c(OC)c2)cc1OCC(=O)Nc1nc2ccc(OC(F)(F)F)cc2s1 | – | 42.1 µM | – | 31.2 µM | – | – | 10.2 | 10.5 µM | > 100 | 4.55 | 9.52 µM | 4.76 µM | 2.03 µM | – | – | – | 0.438 | 2.89 | 1.56
Cc1cc2nc3c4cc(O)ccc4n(CCN(C)C)c3nc2cc1C | – | 2.6 µM | – | 4.46 µM | – | – | > 100 | 2.97 µM | 11.2 | 4.31 | 0.729 µM | 0.953 µM | 1.59 µM | – | – | – | 0.368 | 0.377 | 1.03
COC(=O)CC(NC(=O)OCc1ccccc1)C(C(C)=O)C(=O)OCc1ccccc1 (configuration not stated) | > 31.6 | > 31.6 µM | > 31.6 | > 100 µM | – | > 31.6 | > 31.6 | > 31.6 µM | > 31.6 | – | – | – | – | – | – | – | – | – | –
